For one data set, the system named is 1a-H77 replicon cells. The experiment in a line: HCV 1a replicon inhibitory activity (Renilla luciferase). To be noted: Hepatitis C virus, read-out: IC50 value (95% Confidence Intervals) pM Replicon 1A assay. The format is cell-based, hepatitis C virus. The method in brief: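 Replicon cells in DMEM + 10% FCS incubated 48 hours at 37° C., 5% CO2 with 1-in-3 serial dilutions of compound prepared in DMSO. Replication read as Renilla luciferase luminescence after lysis. EC50 taken from log concentration-response curves.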
(In general: In antiviral work, replicon cells carry a viral genome segment that copies itself.)

A further data set has as its system 1b (con1) replicon cells. Briefly: HCV 1b replicon inhibitory activity (luciferase, Britelite Plus). The format is cell-based, hepatitis C virus. The following applies: Hepatitis C virus, read-out: IC50 value (95% Confidence Intervals) pM Replicon 1B assay. A digest of the protocol:
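1b (con1) luciferase replicon cells in DMEM + 10% FCS were exposed to 1-in-3 DMSO compound dilutions for 48 h at 37° C, 5% CO2. Luminescence was read 1-15 min after Britelite Plus addition; EC50 came from log concentration-response curves.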

Data set [1] is described as follows: Compound induced cytotoxicity in HCV replicon cell lines (WST-1 reagent). It counts as cell-based. The following applies: human, 1b (con1) HCV replicon cells; WST-1, 48 hours; in 1 experiment. The procedure: Test compounds were solubilised to 4 mM in 100% DMSO. Dilutions were made to the desired starting concentration in 100% DMSO and then 1 in 3 dilutions made, again in 100% DMSO. 0.5 μl of each sample was added to 384-well assay plates. White Lumitrac (Greiner) plates were used for the 1a and 1b replicon assays and black, clear bottomed (Greiner) plates were used for the WST-1 cytotoxity assay.
1b (con1) replicon cells were resuspended to a concentration of 1.4×10^5 cells/ml by addition of pre-warmed medium (DMEM+10% FCS). 50 μl of this suspension was added to each well of a 384-well assay plate (Black, clear bottomed, Greiner) already containing 0.5 μl of test compound.
All plates were covered with gas permeable seals and incubated at 37° C., 5% CO2 for 48 hours. After 48 hours, 5 μl WST-1 reagent (Roche, 11 644 807 001) was added to each well and the plate returned to the incubator for 3 hours. After this incubation period absorbance was read at 450 nm on an EnVision (Perkin Elmer) plate reader. The half maximal cytotoxic concentration (CC50) values were calculated for each compound by constructing log concentration-response curves.
All of the exemplified compounds have been screened in a cell proliferation assay (WST-1). A majority have […] in at least 2 independent experiments, the exceptions being the compounds of examples 1, 10, 12, 23, 25, 37, 47, 48, 49, 52, 56, 57, 58, 60, 67, 68, 69, 70, 71, 72, 73, 74, 79, 81 and 84 which have CC50 values>2 μM in 1 experiment, and example 20 where the CC50 is reported as >10 nM (in this instance the top concentration tested in the assay was 10 nM).

The mark [2] stands for this setting: geometric mean, 95% confidence intervals in parentheses, 48 hours, medium with 10% FCS.

Structures can show the parent of a compound that is named as a salt. Where two headings read alike, the source gives them in different places.

What is called IC50 is the concentration at which inhibition is half-maximal. What is called CC50 is the concentration giving 50% cytotoxicity. A lower CC50 goes with greater toxicity to the cells. Turning to `COC(=O)NC(C(=O)N1CCC[C@H]1c1ncc(-c2ccc3nc(-c4ccc(-c5c[nH]c([C@@H]6CCCN6C(=O)[C@@H](NC(=O)OC)C(C)C)n5)cc4)cnc3c2)[nH]1)C1CCOCC1` (stereo partly drawn) [Example 71, Methyl {(2S)-1-[(2S)-2-{4-[4-(6-{2-[(2S)-1-{[(methoxycarbonyl)amino](tetrahydro-2H-pyran-4-yl)acetyl}pyrrolidin-2-yl]-1H-imidazol-5-yl}quinoxalin-2-yl)phenyl]-1H-imidazol-2-yl}pyrrolidin-1-yl]-3-methyl-1-oxobutan-2-yl}carbamate], the IC50 stood at 30.7 pM with 1a-H77 replicon cells (setting [2]) and 23.7 pM with 1b (con1) replicon cells (setting [2]). The half-maximal cytotoxic concentration (CC50) at 48 h in data set [1] was above 2000 nM.

Take `COC(=O)N[C@H](C(=O)N1CCC[C@H]1c1nc(-c2ccc(-c3cnc4cc(-c5cnc([C@@H]6CCCN6C(=O)[C@@H](NC(=O)OC)C(C)(C)C)[nH]5)ccc4n3)cc2)c[nH]1)C(C)C` [Example 70, Methyl {(2S)-1-[(2S)-2-{4-[4-(6-{2-[(2S)-1-{(2S)-2-[(methoxycarbonyl)amino]-3,3-dimethylbutanoyl}pyrrolidin-2-yl]-1H-imidazol-5-yl}quinoxalin-2-yl)phenyl]-1H-imidazol-2-yl}pyrrolidin-1-yl]-3-methyl-1-oxobutan-2-yl}carbamate trifluoroacetic acid salt]: the figures for the IC50 in the data set with 1a-H77 replicon cells (48 h) and in the data set on 1b (con1) replicon cells (48 h) were 9.13 pM and 5.17 pM, respectively. The 50% cytotoxic concentration (CC50) at 48 h in data set [1] was above 2000 nM.

Consider `COC(=O)N[C@@H](Cc1ccccc1)C(=O)N1CCC[C@H]1c1ncc(-c2ccc3nc(-c4ccc(-c5c[nH]c([C@@H]6CCCN6C(=O)[C@@H](NC(=O)OC)C(C)C)n5)cc4)cnc3c2)[nH]1` [Example 49, Methyl {(2S)-1-[(2S)-2-{5-[2-(4-{2-[(2S)-1-{(2S)-2-[(methoxycarbonyl)amino]-3-methylbutanoyl}pyrrolidin-2-yl]-1H-imidazol-4-yl}phenyl)quinoxalin-6-yl]-1H-imidazol-2-yl}pyrrolidin-1-yl]-1-oxo-3-phenylpropan-2-yl}carbamate trifluoroacetic acid salt], for which the figures for the half-maximal inhibitory concentration (IC50) in the data set with 1a-H77 replicon cells (48 h) and in the data set on 1b (con1) replicon cells (48 h) were 73 pM and 7.27 pM, respectively. The compound also showed a half-maximal cytotoxic concentration (CC50) at 48 h in data set [1] above 2000 nM.

As to `CC[C@H](C)[C@H](NC(=O)OC)C(=O)N1CCC[C@H]1c1ncc(-c2ccc3nc(-c4ccc(-c5c[nH]c([C@@H]6CCCN6C(=O)[C@@H](NC(=O)OC)C(C)C)n5)cc4)cnc3c2)[nH]1` [Example 58, Methyl {(2S)-1-[(2S)-2-{4-[4-(6-{2-[(2S)-1-{(2S,3S)-2-[(methoxycarbonyl)amino]-3-methylpentanoyl}pyrrolidin-2-yl]-1H-imidazol-5-yl}quinoxalin-2-yl)phenyl]-1H-imidazol-2-yl}pyrrolidin-1-yl]-3-methyl-1-oxobutan-2-yl}carbamate trifluoroacetic acid salt], the IC50 with 1a-H77 replicon cells (48 h) stood at 6.71 pM; in the data set on 1b (con1) replicon cells (48 h) it was 5.07 pM. Also, the CC50 at 48 h in data set [1] was above 2000 nM.

On to `COC(=O)N[C@H](C(=O)N1CCC[C@H]1c1nc(-c2ccc3nc(-c4ccc(-c5cnc([C@@H]6CCCN6C(=O)[C@@H](NC(=O)OC)C(C)C)[nH]5)cc4)cc(C#N)c3c2)c[nH]1)C(C)C` [Example 23, Methyl {(2S)-1-[(2S)-2-{5-[4-(4-cyano-6-{2-[(2S)-1-{(2S)-2-[(methoxycarbonyl)amino]-3-methylbutanoyl}pyrrolidin-2-yl]-1H-imidazol-4-yl}quinolin-2-yl)phenyl]-1H-imidazol-2-yl}pyrrolidin-1-yl]-3-methyl-1-oxobutan-2-yl}carbamate], for which the IC50 in the data set with 1a-H77 replicon cells (setting [2]) amounted to 5450 pM; in the data set on 1b (con1) replicon cells (setting [2]), 58.4 pM. The compound also showed a CC50 at 48 h in data set [1] above 2000 nM.

As to `CC[C@H](NC(=O)OC)C(=O)N1CCC[C@H]1c1ncc(-c2ccc3nc(-c4ccc(-c5c[nH]c([C@@H]6CCCN6C(=O)[C@@H](NC(=O)OC)C(C)C)n5)cc4)cnc3c2)[nH]1` [Example 52, Methyl {(2S)-1-[(2S)-2-{4-[4-(6-{2-[(2S)-1-{(2S)-2-[(methoxycarbonyl)amino]butanoyl}pyrrolidin-2-yl]-1H-imidazol-5-yl}quinoxalin-2-yl)phenyl]-1H-imidazol-2-yl}pyrrolidin-1-yl]-3-methyl-1-oxobutan-2-yl}carbamate trifluoroacetic acid salt], the half-maximal inhibitory concentration (IC50) is 22.1 pM in the data set with 1a-H77 replicon cells (48 h) and 16.6 pM in the data set with 1b (con1) replicon cells (48 h). The compound also gave a half-maximal cytotoxic concentration (CC50) at 48 h in data set [1] above 2000 nM.

`CC[C@H](NC(=O)OC)C(=O)N1CCC[C@H]1c1ncc(-c2ccc(-c3ccc4cc(-c5cnc([C@@H]6CCCN6C(=O)[C@H](CC)NC(=O)OC)[nH]5)ccc4c3)cc2)[nH]1` [Example 25, Methyl {(2S)-1-[(2S)-2-{5-[4-(6-{2-[(2S)-1-{(2S)-2-[(methoxycarbonyl)amino]butanoyl}pyrrolidin-2-yl]-1H-imidazol-5-yl}naphthalen-2-yl)phenyl]-1H-imidazol-2-yl}pyrrolidin-1-yl]-1-oxobutan-2-yl}carbamate]: the IC50 in the data set on 1a-H77 replicon cells (setting [2]) was 88.8 pM; with 1b (con1) replicon cells (setting [2]), 10.8 pM. For the same compound, the CC50 at 48 h in data set [1] is above 2000 nM.

In the case of `COC(=O)N[C@H](C(=O)N1CCC[C@H]1c1nc(-c2ccc(-c3cnc4cc(-c5cnc([C@@H]6CCCN6C(=O)[C@H](Cc6ccccc6)NC(C)=O)[nH]5)ccc4n3)cc2)c[nH]1)C(C)C` [Example 47, Methyl {(2S)-1-[(2S)-2-{4-[4-(6-{2-[(2S)-1-(N-acetyl-L-phenylalanyl)pyrrolidin-2-yl]-1H-imidazol-5-yl}quinoxalin-2-yl)phenyl]-1H-imidazol-2-yl}pyrrolidin-1-yl]-3-methyl-1-oxobutan-2-yl}carbamate trifluoroacetic acid salt], the values for the half-maximal inhibitory concentration (IC50) with 1a-H77 replicon cells (48 h) and in the data set with 1b (con1) replicon cells (48 h) were 6850 pM and 52.8 pM, respectively. In addition, the CC50 at 48 h in data set [1] is above 2000 nM.

In the case of `COC(=O)N[C@H](C(=O)N1CCC[C@H]1c1nc(-c2ccc(-c3cnc4cc(-c5cnc([C@@H]6CCCN6C(=O)[C@@H](NC(=O)OC)[C@@H](C)OC(C)(C)C)[nH]5)ccc4n3)cc2)c[nH]1)C(C)C` [Example 74, Methyl {(2S)-1-[(2S)-2-{4-[4-(6-{2-[(2S)-1-{(2S,3R)-3-tert-butoxy-2-[(methoxycarbonyl)amino]butanoyl}pyrrolidin-2-yl]-1H-imidazol-5-yl}quinoxalin-2-yl)phenyl]-1H-imidazol-2-yl}pyrrolidin-1-yl]-3-methyl-1-oxobutan-2-yl)carbamate], the results for the half-inhibitory concentration (IC50) with 1a-H77 replicon cells (setting [2]) and in the data set on 1b (con1) replicon cells (setting [2]) were 43.7 pM and 14.2 pM, respectively. In addition, the 50% cytotoxic concentration (CC50) at 48 h in data set [1] was above 2000 nM.

Consider `CCC[C@H](NC(C)=O)C(=O)N1CCC[C@H]1c1ncc(-c2ccc3nc(-c4ccc(-c5c[nH]c([C@@H]6CCCN6C(=O)[C@@H](NC(=O)OC)C(C)C)n5)cc4)cnc3c2)[nH]1` [Example 37, Methyl {(2S)-1-[(2S)-2-{4-{4-[6-(2-{(2S)-1-(N-acetyl-L-norvalyl)pyrrolidin-2-yl]-1H-imidazol-5-yl)quinoxalin-2-yl)phenyl]-1H-imidazol-2-yl}pyrrolidin-1-yl]-3-methyl-1-oxobutan-2-yl}carbamate trifluoroacetic acid salt], for which the IC50 amounted to 284 pM in the data set with 1a-H77 replicon cells (48 h) and 42.9 pM with 1b (con1) replicon cells (48 h). The same compound displayed a half-maximal cytotoxic concentration (CC50) at 48 h in data set [1] above 2000 nM.
